We go through two molecules from article PMC8509773, “3-Pyridinylidene Derivatives of Chemically Modified Lupane and Ursane Triterpenes as Promising Anticancer Agents by Targeting Apoptosis” (International Journal of Molecular Sciences, 2021).

The subject of data set [1] is RPMI melanoma cells. Description: DAPI staining assay. The format is cell-based, human. As to conditions: 24 h. The procedure: (§1) For this purpose, the melanoma cell lines selected were A375, RPMI, and SK-MEL-28, given that these three lines have very good correlation coefficient scores with tumor cells originating from a wide range of malignant tumors, based on transcriptional similarity. This feature can also lead to increased clinical applicability potential for the tested substances. The two compounds were tested against three human melanoma cell lines: A375, RPMI, and SK-MEL-28 melanoma cell lines by applying 0.1, 1, and 5 μM solutions, respectively. 4′,6-Diamidino-2-phenylindole (DAPI) is a DNA-specific marker which allows the direct fluorescent blue staining of nuclei against a dark background, widely used in life sciences research. In effect, the DAPI stain binds to chromatin within the nuclei and provides their clear outline under the blue light (405 nm) while the cytoplasmic medium remains non-fluorescent. Moreover, due to its lack of interference with DNA–linker interactions, DAPI stain can provide fine details of nuclei’ shapes instead of merely highlighting their centers which contain the highest concentration of nucleic acids.
(§2) The DAPI assay was performed on three human melanoma cell lines: A375, RPMI, and SK-MEL-28. The cells were cultured in 24-well plates at 2x10^5 cells/well; compounds 6 and 7 in three different concentrations (0.1, 1, and 5 μM); and three DMSO concentrations (0.1, 1, and 5 μM) were used to stimulate cells. The immunofluorescent staining technique was performed according to a previously described protocol and adapted to our laboratory conditions. Thus, after 24 h of stimulation, the cells were fixed with 4% paraformaldehyde and incubated at room temperature for 1 h. Cell permeability was 30 min later performed with 2% Triton X solution in phosphate-buffered saline (PBS). The 300 nM 4’,6-diamidino-2-phenylindole (DAPI) staining was used to visualize cell nuclei under the fluorescence microscope at 40x magnification using CellSens V1.15 software (Olympus, Tokyo, Japan) and Image J software.

Data set [2] deals with SK-MEL-28 melanoma cells. The data set can be described thus: DAPI staining assay. The format is cell-based, human. The note with it: 24 h. As for the experimental part:
as §1, §2

Data set [3] has as its system A375 melanoma cells. Description: DAPI staining assay. It counts as cell-based, human. The note with it: 24 h. As for the experimental part: as §1, §2
For data set [4], the system named is Bcl-2 gene. The data set can be described thus: rtPCR gene expression in Sk-Mel-28 cells. It counts as cell-based, human.
The test system of data set [5] is chorioallantoic membrane. Description: HET-CAM irritation assay. The note with it: for Irritation Score: 5 min. The source says: HET-CAM assay was used in order to assess the toxicity of compounds 6 and 7 (Figure 16); the procedure is a low-cost, unique model in biomedical research that allows the testing of the irritation potency of chemical compounds while simultaneously avoiding in vivo experiments. […] The Luepke scale was used to establish the irritation score: 0–0.9 indicates non-irritant, 1–4.9 indicates weakly irritant, 5–8.9 indicates moderately irritant, and 9–21 means strongly irritant.
Compounds 6 and 7 were also evaluated in terms of biocompatibility on mucosal tissues by using the in vivo Hen’s Egg Chorioallantoic Membrane Test (HET-CAM assay). The assay assesses a potential irritant effect on the vascular plexus of the chorioallantoic membrane. The HET-CAM method was carried out following ICCVAM recommendations published in November 2016 in Appendix G and adapted to our laboratory conditions. Thus, 300 µL of control or test solution, respectively, was applied on CAM and the alterations induced at the CAM level were monitored by means of stereomicroscopy (Discovery 8 Stereomicroscope, Zeiss), registering significant images (Axio CAM 105 color, Zeiss), before the application and after 5 min contact with the samples. All images were processed using Zeiss ZEN software, Gimp 2.8 and ImageJ software. Negative control was represented by distilled water and solvent control DMSO 0.5%, while the positive control by the sodium lauryl sulphate (SLS) 0.5% in distillate water. The test substances were tested in concentrations of 1 µM. The observation time of the produced reactions was 5 min (300 s) and the time, at which the occurrence of a particular reaction took place was recorded in seconds. Finally, the following reactions were monitored: hemorrhage—H (blood vessel bleeding), vascular lysis —L (disintegration of blood vessels), and coagulation —C (intra or extra- vascular protein denaturizing). A variety of analysis methods may be used to assess irritancy potential of test substances. One analysis method that has been used extensively used is an irritation score (IS) calculated according to the following formula: IS=5×301−SecH/300+[…]/300+9×301−SecC/300 where H = hemorrhage; L = vessel lysis; C = coagulation; Hemorrhage time (Sec H) = onset of hemorrhage reactions on CAM (in sec); Lysis time (Sec L) = onset of vessel lysis on CAM (in sec); Coagulation time (Sec C) = onset of coagulation formation on CAM (in sec). The formula comprises a factor indicating the impact of the observed effect on vascular damage, e.g., coagulation has the highest impact expressed by the multiplication factor 9. The IS values range on a scale between 0 and 21.

Data set [6] relates to chorioallantoic membrane. Description: Chorioallantoic membrane (CAM) angiogenesis assay. It counts as in vivo, chicken. The note with it: 1 µM in 0.5% DMSO, applied daily for 72 h. The procedure: The potential effects of compounds 6 and 7 on the angiogenesis process were investigated using the chorioallantoic membrane (CAM) assay which uses fertilized chicken eggs, incubated at 37 °C, under controlled humidity. On the third day of incubation (embryonic day 3 of development, EDD 3), a small opening was made at one end of the eggs and 5–6 mL of albumen was removed, thus facilitating the separation of the chorioallantoic membrane. On EDD 4, a window was cut on the upper side of the egg and subsequently resealed, returning the specimens to the incubator. On EDD 7 (0 h), 10 µL of each test solution was administered inside a plastic ring previously applied on the intensely vascularized surface of the CAM [75, 76]. […] All samples were applied daily in the same volume for 72 h. For each analyzed sample, 5 eggs were used, and all samples were applied in triplicate. Macroscopic evaluation was daily performed in ovo by means of stereomicroscopy (ZEISS SteREO Discovery.V8, Göttingen, Germany) and all images were registered and processed by Axiocam 105 color, AxioVision SE64. Rel. 4.9.1 Software, (ZEISS Göttingen, Germany), ImageJ (ImageJ Version 1.50e, https://imagej.nih.gov/ij/index.html, accessed on 12 May 2021) and GIMP software (GIMP v 2.8, https://www.gimp.org/, accessed on 12 May 2021).

Entries after “also recorded” stand apart in the source; their conditions may differ. Marks after values point to notes of the source that are not given here.

Regarding `C[C@H]1[C@@H]2[C@H]3CC[C@@H]4[C@@]5(C)C/C(=C\c6cccnc6)C(=O)C(C)(C)[C@@H]5CC[C@@]4(C)[C@]3(C)CC[C@]23CO[C@@]1(C)[C@@H](C(=O)/C=C/c1cccnc1)C3` [Compound 6, 3-Oxo-2-(3-pyridinylidene)-21-[3-(2E-pyridinyl)-prop-2-en-1-one]-20β,28-epoxy-18α,19βH-ursane], the “Nuclear changes, DAPI staining” value was “massive nucleus condensation and fragmentation” in data set [1] (0.1 μM); “occurrence of nuclear residues” in data set [1] (5 μM); “massive nucleus condensation and fragmentation” in data set [2] (SK-Mel-28, 0.1 μM); “occurrence of nuclear residues” in data set [2] (SK-Mel-28, 5 μM); “nuclear fragmentation” in data set [3] (A375, 0.1 μM); “nuclear fragmentation” in data set [3] (A375, 1 μM). The “Nuclear changes, DAPI staining” value in data set [3] (A375, 5 μM) is “chromatin becomes condensed”. For the same molecule, the “Bcl-2 gene expression, Mean” value in data set [4] is recorded as 0.200 *. Further, in data set [5] (HET-CAM, 300 µL, 1 µM test compounds, scale 0–21), the “Irritation Score” value was found to be 0. Further, the “Type of Effect” value in data set [5] (HET-CAM, Luepke scale) is given as “Non irritant”. Further, in data set [6], the “Effect on the normal angiogenic process” value was “only slightly affected angiogenesis”.
Regarding `COC(=O)[C@]12CC[C@@H](C(=O)/C=C/c3cccnc3)[C@@H]1[C@H]1CC[C@@H]3[C@@]4(C)C/C(=C\c5cccnc5)C(=O)C(C)(C)[C@@H]4CC[C@@]3(C)[C@]1(C)CC2` [Compound 7, methyl 2,30-bis-(3-pyridinylidene)-3,20-dioxo-lup-28-oate], the “Nuclear changes, DAPI staining” value in data set [1] (0.1 μM) was “slight nucleus fragmentation”; in data set [1] (1 μM), “nuclear fragmentation and chromatin condensation”; in data set [1] (5 μM), “nuclear fragmentation and chromatin condensation”; in data set [2] (SK-Mel-28, 0.1 μM) it was “slight nucleus fragmentation”; in data set [2] (SK-Mel-28, 1 μM), “nuclear fragmentation and chromatin condensation”; in data set [2] (SK-Mel-28, 5 μM) it was “nuclear fragmentation and chromatin condensation”. Moreover, the “Nuclear changes, DAPI staining” value in data set [3] (A375, 0.1 μM) is recorded as “nucleus fragmentation”; in data set [3] (A375, 1 μM), “condensation of chromatin”; in data set [3] (A375, 5 μM) it was “condensation of chromatin”. In data set [4], the “Bcl-2 gene expression, Mean” value is given as 0.210 *. Moreover, the “Irritation Score” value in data set [5] (chicken, in vivo, 1 µM) turned out to be 0. The “Type of Effect” value in data set [5] (in vivo) was “Non irritant”. Besides, the “Effect on the normal angiogenic process” value in data set [6] is “did not interfere with the normal angiogenic process; also recorded: does not influence the angiogenic process”.
